This test relates to HBV rcDNA in HepDE19 cells. The experiment in a line: HepDE19 assay with bDNA quantitation of HBV rcDNA. The test is classed as cell-based, hepatitis B virus (HBV).
The mark [1] stands for this setting: Hepatitis B virus, HepDE19, 168 h, read-out: DE-19 bDNA EC50 (μM), HepDE19 cells, inhibition of rcDNA formation, 7 day incubation, top concentration 25 μM.
[2] abbreviates: Hepatitis B virus, HepDE19, 168 h, HepDE19 cells, inhibition of rcDNA formation, 7 day incubation, top concentration 25 μM, read-out: DE-19 bDNA EC50.

Structures can show the parent of a compound that is named as a salt. Where two headings read alike, the source gives them in different places.

As for `Cc1cnc(COC(=O)N[C@H]2CCc3c(C(=O)Nc4ccc(F)c(Cl)c4)ccc(F)c32)cn1` [Compound 152, O-(5-Methylpyrazin-2-yl)methyl, N—(S)-(4-((3-chloro-4-fluorophenyl)carbamoyl)-7-fluoro-2,3-dihydro-1H-inden-1-yl)carbamate], under setting [1], the EC50 came to 0.07 µM.

As to `O=C(N[C@H]1CCc2c(C(=O)Nc3ccc(F)c(Cl)c3)ccc(F)c21)OCCN1CCOCC1` [Compound 153, O-2-Morpholinoethyl, N—(S)-(4-((3-chloro-4-fluorophenyl)carbamoyl)-7-fluoro-2,3-dihydro-1H-inden-1-yl) carbamate], the EC50 under setting [1] stood at 0.47 µM.

For the compound `O=C(N[C@H]1CCc2c(C(=O)Nc3ccc(F)c(Cl)c3)ccc(F)c21)OC1CCC(O)CC1` (stereo partly drawn) [Compound 154, O-cis-4-Hydroxycyclohexyl, N—((S)-4-((3-chloro-4-fluorophenyl)carbamoyl)-7-fluoro-2,3-dihydro-1H-inden-1-yl) carbamate], the EC50 under setting [2] was determined as 0.35 µM.

On to `O=C(N[C@H]1CCc2c(C(=O)Nc3ccc(F)c(Cl)c3)ccc(F)c21)OCCCO` [Compound 155, O-3-Hydroxypropyl, N—(S)-(4-((3-chloro-4-fluorophenyl)carbamoyl)-7-fluoro-2,3-dihydro-1H-inden-1-yl) carbamate], for which the EC50 under setting [1] came out at 24 µM.

For `O=C(N[C@H]1CCc2c(C(=O)Nc3ccc(F)c(Cl)c3)ccc(F)c21)OC1CCC(O)CC1` (stereo partly drawn) [Compound 156, O-trans-4-Hydroxycyclohexyl, N—((S)-4-((3-chloro-4-fluorophenyl)carbamoyl)-7-fluoro-2,3-dihydro-1H-inden-1-yl) carbamate], for the setting “read-out: DE-19 bDNA EC50, HepDE19 cells, inhibition of rcDNA formation, 7 day incubation, top concentration 25 μM”, the EC50 is 0.22 µM.

Take `CC(=O)NCCOC(=O)N[C@H]1CCc2c(C(=O)Nc3ccc(F)c(Cl)c3)ccc(F)c21` [Compound 157, O-2-Acetamidoethyl, N—(S)-(4-((3-chloro-4-fluorophenyl)carbamoyl)-7-fluoro-2,3-dihydro-1H-inden-1-yl) carbamate]: the EC50 under setting [1] came to 0.26 µM.

Turning to `CCC(=O)N[C@H]1CCc2c(C(=O)Nc3ccc(F)c(Cl)c3)ccc(F)c21` [Compound 158, (S)-N-(3-chloro-4-fluorophenyl)-7-fluoro-1-propionamido-2,3-dihydro-1H-indene-4-carboxamide], the EC50 under setting [2] amounted to 0.81 µM.

With `COc1ccnc(N[C@H]2CCc3c(C(=O)Nc4ccc(F)c(Cl)c4)ccc(F)c32)n1` [Compound 159, (S)—N-(3-Chloro-4-fluorophenyl)-7-fluoro-1-((4-methoxypyrimidin-2-yl)amino)-2,3-dihydro-1H-indene-4-carboxamide], the EC50 under setting [1] was determined as 0.69 µM.

As to `Cc1ccnc(N[C@H]2CCc3c(C(=O)Nc4ccc(F)c(Cl)c4)ccc(F)c32)n1` [Compound 160], the EC50 under setting [1] is 0.25 µM.

On to `COc1nccc(N[C@H]2CCc3c(C(=O)Nc4ccc(F)c(Cl)c4)ccc(F)c32)n1` [Compound 161, (S)—N-(3-Chloro-4-fluorophenyl)-7-fluoro-1-((2-methoxypyrimidin-4-yl)amino)-2,3-dihydro-1H-indene-4-carboxamide], for which the EC50 under setting [1] stood at 0.27 µM.

As for `Cc1cnc(N[C@H]2CCc3c(C(=O)Nc4ccc(F)c(Cl)c4)ccc(F)c32)nc1` [Compound 162, (S)—N-(3-Chloro-4-fluorophenyl)-7-fluoro-1-((5-methylpyrimidin-2-yl)amino)-2,3-dihydro-1H-indene-4-carboxamide], under setting [1], the EC50 worked out at 0.15 µM.

On to `COc1cc(N[C@H]2CCc3c(C(=O)Nc4ccc(F)c(Cl)c4)ccc(F)c32)ncn1` [Compound 163, (S)—N-(3-Chloro-4-fluorophenyl)-7-fluoro-1-((6-methoxypyrimidin-4-yl)amino)-2,3-dihydro-1H-indene-4-carboxamide], for which, under setting [1], the EC50 worked out at 0.07 µM.

Turning to `Cc1cc(C)nc(N[C@H]2CCc3c(C(=O)Nc4ccc(F)c(Cl)c4)ccc(F)c32)n1` [Compound 164, (S)—N-(3-Chloro-4-fluorophenyl)-1-((4,6-dimethylpyrimidin-2-yl)amino)-7-fluoro-2,3-dihydro-1H-indene-4-carboxamide], under setting [1], the EC50 was determined as 1 µM.

As to `CNC(=O)N[C@@H]1c2cccc(C(=O)Nc3ccc(F)c(Cl)c3)c2C[C@H]1OC` [Compound 165, (1R,2R)—N-(3-Chloro-4-fluorophenyl)-2-methoxy-1-(3-methylureido)-2,3-dihydro-1H-indene-4-carboxamide], the EC50 under setting [1] came out at 0.33 µM.

Consider `O=C1C[C@H](OC(=O)N[C@H]2CCc3c(C(=O)Nc4ccc(F)c(Cl)c4)ccc(F)c32)CN1` [Compound 166, O—(S)-5-Oxopyrrolidin-3-yl, N—((S)-4-((3-chloro-4-fluorophenyl)carbamoyl)-7-fluoro-2,3-dihydro-1H-inden-1-yl) carbamate], for which, under setting [2], the EC50 came out at 0.14 µM.

As to `O=C(Nc1ccc(F)c(Cl)c1)c1ccc(F)c2c1CC[C@@H]2NS(=O)(=O)CCc1ccccn1` [Compound 167, (S)—N-(3-Chloro-4-fluorophenyl)-7-fluoro-1-((2-(pyridin-2-yl)ethyl)sulfonamido)-2,3-dihydro-1H-indene-4-carboxamide Hydrochloride], under setting [1], the EC50 was found to be 0.29 µM.

For `O=C(N[C@H]1CCc2c(C(=O)Nc3ccc(F)c(Cl)c3)ccc(F)c21)OCc1cccc(C(F)(F)F)n1` [Compound 168, O-(6-(Trifluoromethyl)pyridin-2-yl)methyl, N—(S)-(4-((3-chloro-4-fluorophenyl)carbamoyl)-7-fluoro-2,3-dihydro-1H-inden-1-yl) carbamate], under setting [1], the EC50 came out at 0.62 µM.

Take `O=C(N[C@H]1CCc2c(C(=O)Nc3ccc(F)c(Cl)c3)ccc(F)c21)OCc1ccc(C(F)(F)F)cn1` [Compound 169, O-(5-(Trifluoromethyl)pyridin-2-yl)methyl, N—(S)-(4-((3-chloro-4-fluorophenyl)carbamoyl)-7-fluoro-2,3-dihydro-1H-inden-1-yl) carbamate]: under setting [1], the EC50 was 2.2 µM.

Consider `O=C(N[C@H]1CCc2c(C(=O)Nc3ccc(F)c(Cl)c3)ccc(F)c21)O[C@@H]1CCOC1` [Compound 170, O—(R)-Tetrahydrofuran-3-yl, N—((S)-4-((3-chloro-4-fluorophenyl)carbamoyl)-7-fluoro-2,3-dihydro-1H-inden-1-yl) carbamate], for which the EC50 under setting [2] is 0.26 µM.

In the case of `Cn1ccc(CCC(=O)N[C@H]2CCc3c(C(=O)Nc4ccc(F)c(Cl)c4)ccc(F)c32)n1` [Compound 171, (S)—N-(3-Chloro-4-fluorophenyl)-7-fluoro-1-(3-(1-methyl-1H-pyrazol-3-yl)propanamido)-2,3-dihydro-1H-indene-4-carboxamide], the EC50 under setting [2] was determined as 0.13 µM.

As to `N#Cc1ccc(COC(=O)N[C@H]2CCc3c(C(=O)Nc4ccc(F)c(Cl)c4)ccc(F)c32)nc1` [Compound 172, O-(5-Cyanopyridin-2-yl)methyl, N—(S)-(4-((3-chloro-4-fluorophenyl)carbamoyl)-7-fluoro-2,3-dihydro-1H-inden-1-yl) carbamate], under setting [1], the EC50 amounted to 0.19 µM.

For `Cc1nccnc1COC(=O)N[C@H]1CCc2c(C(=O)Nc3ccc(F)c(Cl)c3)ccc(F)c21` [Compound 173, O-(3-Methylpyrazin-2-yl)methyl, N—(S)-(4-((3-chloro-4-fluorophenyl)carbamoyl)-7-fluoro-2,3-dihydro-1H-inden-1-yl) carbamate], the EC50 under setting [1] came out at 0.12 µM.

Take `CC(=O)N1CCC(COC(=O)N[C@H]2CCc3c(C(=O)Nc4ccc(F)c(Cl)c4)ccc(F)c32)CC1` [Compound 174, O-(1-Acetylpiperidin-4-yl)methyl, N—(S)-(4-((3-chloro-4-fluorophenyl)carbamoyl)-7-fluoro-2,3-dihydro-1H-inden-1-yl) carbamate]: the EC50 under setting [1] amounted to 0.87 µM.

With `O=C(N[C@H]1CCc2c(C(=O)Nc3ccc(F)c(Cl)c3)ccc(F)c21)OCC1CCN(C(=O)CO)CC1` [Compound 175, O-(1-(2-Hydroxyacetyl)piperidin-4-yl)methyl, N—(S)-(4-((3-chloro-4-fluorophenyl)carbamoyl)-7-fluoro-2,3-dihydro-1H-inden-1-yl) carbamate], the EC50 under setting [1] was 0.96 µM.

As to `CNC(=O)N1CCC(COC(=O)N[C@H]2CCc3c(C(=O)Nc4ccc(F)c(Cl)c4)ccc(F)c32)CC1` [Compound 176, O-(1-(Methylcarbamoyl)piperidin-4-yl)methyl, N—(S)-(4-((3-chloro-4-fluorophenyl)carbamoyl)-7-fluoro-2,3-dihydro-1H-inden-1-yl) carbamate], the EC50 under setting [1] is 0.64 µM.

With `O=C(N[C@H]1CCc2c(C(=O)Nc3ccc(F)c(Cl)c3)ccc(F)c21)OCC1CS(=O)(=O)CCN1` (stereo partly drawn) [Compound 177, O-(1,1-Dioxidothiomorpholin-3-yl)methyl, N—((S)-4-((3-chloro-4-fluorophenyl)carbamoyl)-7-fluoro-2,3-dihydro-1H-inden-1-yl) carbamate Hydrochloride], the EC50 under setting [1] is 0.5 µM.

In the case of `CO[C@@H]1Cc2c(C(=O)Nc3ccc(F)c(Cl)c3)ccc(F)c2[C@H]1NC(=O)OCc1ccccn1` [Compound 178, O-Pyridin-2-ylmethyl, N-((1R,2R)-4-((3-chloro-4-fluorophenyl)carbamoyl)-7-fluoro-2-methoxy-2,3-dihydro-1H-inden-1-yl) carbamate], for the setting “HepDE19 cells, inhibition of rcDNA formation, 7 day incubation, top concentration 25 μM, read-out: DE-19 bDNA EC50”, the EC50 came out at 0.04 µM.

Consider `O=C(Nc1ccc(F)c(Cl)c1)c1ccc(F)c2c1CC[C@@H]2NC(=O)C1CC1` [Compound 179, (S)—N-(3-Chloro-4-fluorophenyl)-1-(cyclopropanecarboxamido)-7-fluoro-2,3-dihydro-1H-indene-4-carboxamide], for which, under setting [2], the EC50 is 0.14 µM.

With `O=C(N[C@H]1CCc2c(C(=O)Nc3ccc(F)c(Cl)c3)ccc(F)c21)OC[C@@H]1COCCN1` [Compound 180, O—((S)-Morpholin-3-yl)methyl, N—((S)-4-((3-chloro-4-fluorophenyl)carbamoyl)-7-fluoro-2,3-dihydro-1H-inden-1-yl) carbamate Hydrochloride], the EC50 under setting [1] was 0.2 µM.

(Values after US11098010B2 (priority 2017, dated 2021).)
